The values that follow come from publication PMC12583703 (Nature Communications, 2025).

For one test, the target named is T1, SLC38A2 (Homo sapiens, UniProt Q96QD8).
T1 sequence (Q96QD8 1-506): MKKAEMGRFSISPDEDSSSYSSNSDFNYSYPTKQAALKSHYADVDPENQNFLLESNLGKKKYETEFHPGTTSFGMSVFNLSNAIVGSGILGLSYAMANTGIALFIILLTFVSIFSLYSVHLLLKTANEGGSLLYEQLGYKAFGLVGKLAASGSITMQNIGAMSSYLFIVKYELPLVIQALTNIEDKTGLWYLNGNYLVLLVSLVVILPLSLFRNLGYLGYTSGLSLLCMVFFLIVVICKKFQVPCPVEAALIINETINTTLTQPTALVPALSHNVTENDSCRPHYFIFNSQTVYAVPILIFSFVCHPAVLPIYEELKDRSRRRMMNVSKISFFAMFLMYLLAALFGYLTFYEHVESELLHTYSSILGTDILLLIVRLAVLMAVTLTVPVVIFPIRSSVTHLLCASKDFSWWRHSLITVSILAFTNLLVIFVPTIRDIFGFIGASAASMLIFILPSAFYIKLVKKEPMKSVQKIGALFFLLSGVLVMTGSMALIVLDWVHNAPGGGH
Put plainly: thermal shift assay.

The target of the next test is T2, SLC1A5 (Homo sapiens, UniProt Q15758).
T2 sequence (Q15758 1-541): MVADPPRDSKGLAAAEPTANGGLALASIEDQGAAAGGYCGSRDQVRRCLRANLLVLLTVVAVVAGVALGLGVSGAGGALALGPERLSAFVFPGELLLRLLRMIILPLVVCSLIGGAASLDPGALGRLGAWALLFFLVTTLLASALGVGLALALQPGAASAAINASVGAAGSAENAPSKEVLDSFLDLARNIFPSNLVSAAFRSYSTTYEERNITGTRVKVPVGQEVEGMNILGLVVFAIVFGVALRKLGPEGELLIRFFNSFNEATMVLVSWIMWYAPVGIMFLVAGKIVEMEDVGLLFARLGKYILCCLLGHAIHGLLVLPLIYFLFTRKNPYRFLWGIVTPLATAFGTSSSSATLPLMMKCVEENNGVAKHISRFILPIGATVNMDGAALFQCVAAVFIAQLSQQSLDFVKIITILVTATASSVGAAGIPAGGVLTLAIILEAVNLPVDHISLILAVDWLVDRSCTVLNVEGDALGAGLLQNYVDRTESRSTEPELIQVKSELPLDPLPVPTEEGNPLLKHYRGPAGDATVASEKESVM
Put plainly: thermal shift assay.

Consider `Cc1cccc(COc2ccccc2CN(CC[C@H](N)C(=O)O)Cc2ccccc2OCc2cccc(C)c2)c1` [V-9302], for which the Tm entry at SLC38A2 is “V-9302 significantly altered the Tm values of SLC1A5, SLC38A2, SLC6A19, and ANO1”; on SLC1A5, “V-9302 significantly altered the Tm values of SLC1A5, SLC38A2, SLC6A19, and ANO1”.
